Converted amounts (≈) assume the structure as drawn.
Columns and labels:
[1] = system: Escherichia coli (ATCC 8739); assay: Minimal Inhibitory Concentration (MIC) on Escherichia coli with or without PMBN, OD600 after O/N growth; type: cell-based; details: for MIC / Minimal inhibitory concentration With PMBN: E. coli (ATCC 8739); for MIC: molecule alone; for Minimal inhibitory concentration With PMBN: together with PMBN at 40 μg/ml
Protocol: The Minimal Inhibitory Concentration (MIC) of molecules 2329, 2412, 2452 and 2461 together with polymyxin B nonapeptide (PMBN) was determined on Escherichia coli (ATCC 8739) according to EUCAST (European Committee on Antimicrobial Susceptibility Testing) recommendations.
(§1) Briefly, a single colony grown on a Luria-Bertani Agar (LB) plate was resuspended and cultured in the LB medium overnight (O/N) in aerobic conditions (37° C. with 220 rpm shaking), next day a 1:50 inoculum in Mueller-Hinton broth (MHB) was incubated in aerobic conditions for 1h30 (OD=0.08-0.1) and an inoculum of 1:300 dilution, corresponding to 3×10^6 CFU/ml, was incubated in presence or absence of different concentrations of the molecules in 1% DMSO (vehicle) with or without Polymyxin B nonapeptide (PMBN) at 40 μg/ml. After O/N growth the OD of each culture was measured at 600 nm in a spectrophotometer (OD600). The MIC represents the concentration at which there is no visible growth of bacteria, i.e. ΔOD at 600 nm equal to zero wherein ΔOD is the difference between the resulting optical density (OD) with the molecule together with PMBN, and the optical density (OD) of the blank (blank is the medium) alone.
(§2) A single colony grown on an Lurian-Bertani (LB) agar plate is resuspended and cultured in LB medium overnight (O/N) in aerobic conditions (37° C. with 220 rpm shaking), next day a 1:50 inoculum in Mueller-Hinton broth (MHB) is incubated in aerobic conditions for 1h30 (OD=0.08-0.1) and an inoculum of 1:300 dilution, corresponding to 3×10^6 CFU/ml, is incubated in presence or absence of different concentrations of the tested molecules in 1% DMSO (vehicle) with or without PMBN at 40 μg/ml. After O/N growth the OD of each culture was measured at 600 nm (OD600) in a spectrophotometer (Victor 3-Perkin Elmer). The MIC represents the concentration at which there is no visible growth of bacteria, i.e. ΔOD at 600 nm equal to zero wherein ΔOD is the difference between the resulting optical density (OD) with the molecule together with PMBN, and the optical density (OD) of the blank (blank is the medium) alone.
as §1, with “cultured in LB medium” for “cultured in the LB medium”, “of the above-mentioned molecules in” for “of the molecules in”
as §2, with “a Luria-Bertani” for “an Lurian-Bertani”, “above-mentioned pyrazolopyrimidine molecule” for “tested molecules”, “alone. […]” for “alone.”

[2] = system: Pseudomonas aeruginosa (ATCC27853); assay: Minimal Inhibitory Concentration (MIC) on Pseudomonas aeruginosa with or without PMBN; type: cell-based; details: Pseudomonas aeruginosa (ATCC 27853); for Minimal inhibitory concentration without PMBN: molecule alone; for Minimal inhibitory concentration With PMBN: together with PMBN at 0.5 μg/ml
Protocol: A single colony grown on an tryptic soy agar plate is resuspended and cultured in tryptic soy broth medium overnight (O/N) in aerobic conditions (37° C. with 220 rpm shaking), next day a 1:100 inoculum in Mueller-Hinton broth (MHB) is incubated in aerobic conditions for 3h (OD=0.5-0.6) and an inoculum of 1:1000 dilution, corresponding to 1-3×10^5 CFU/ml, is incubated in presence or absence of different concentrations of the tested molecules in 1% DMSO (vehicle) with or without PMBN at 0.5 μg/ml. After 28-30h growth the OD of each culture was measured at 600 nm (OD600) in a spectrophotometer (Victor 3-Perkin Elmer). The MIC represents the concentration at which there is no visible growth of bacteria, i.e. ΔOD at 600 nm equal to zero (blank is the medium alone) wherein ΔOD is the difference between the resulting optical density (OD) with the molecule together with PMBN, and the optical density (OD) of the blank (blank is the medium) alone.

[3] = 100 μM together with 40 μg/ml PMBN
[4] = with 10 to 50 µg/ml PMBN, particularly 40 μg/ml

Compound | OD600 nm after O/N growth of Escherichia coli (FIG. 4) ([1]; 50 μM with 40 μg/ml PMBN) | MIC [1] [µM] | Minimal inhibitory concentration With PMBN [1] [µM] | MIC ([1]; Escherichia coli, ATCC8739) [µM] | Activity against Escherichia coli (ATCC 8739), conclusion ([1]; with 40 μg/ml PMBN) | Minimal inhibitory concentration without PMBN [2] [µM] | Minimal inhibitory concentration With PMBN [2] [µM] | Antibacterial activity against E. coli (ATCC8739) [1] | OD600 nm after O/N growth of Escherichia coli (FIG. 4) [1, 3] | Activity against Escherichia coli (ATCC 8739), conclusion [1, 4] | OD600 nm after O/N growth of Escherichia coli (FIG. 4) ([1]; 20 μM with 40 μg/ml PMBN)
CCSc1nc(N[C@@H]2C[C@H]2c2ccc(F)c(F)c2)c2ncn(C)c2n1 [molecule 2525, N-((1R,2S)-2-(3,4-difluorophenyl)cyclopropyl)-2-(ethylthio)-9-methyl-9H-purin-6-amine] | killed all bacteria | >100 | 50 (≈ 18.1 µg/mL) | > 100 | bactericidal activity |  |  |  |  |  | 
C=CCn1cnc2c(N[C@@H]3C[C@H]3c3ccc(F)c(F)c3)nc(SCCC)nc21 [molecule 2412, 9-allyl-N-((1R,2S)-2-(3,4-difluorophenyl)cyclopropyl)-2-(propylthio)-9H-purin-6-amine] |  | >100 | 50 (≈ 20.1 µg/mL) | > 100 |  | >100 | 50 (≈ 20.1 µg/mL) |  |  |  | 
CCCCOc1nc(NCc2ccccc2)c2ncn(Cc3c(F)ccc(C)c3F)c2n1 [molecule 39z″, N-Benzyl-2-butoxy-9-(2,6-difluoro-3-methylbenzyl)-9H-purin-6-amine, reference compound] |  |  | > 100 |  |  |  |  | no antibacterial activity | did not differ from vehicle control | no antibacterial activity | 
CCCCSc1nc(N[C@@H]2C[C@H]2c2ccc(F)c(F)c2)c2ncn(C)c2n1 [molecule 2833, 2-(butylthio)-N-((1R,2S)-2-(3,4-difluorophenyl)cyclopropyl)-9-methyl-9H-purin-6-amine] |  | >100 | 90 (≈ 35.1 µg/mL) | > 100 |  |  |  |  |  |  | 
CCCCOc1nc(NC2CC2)c2ncn(Cc3c(F)ccc(C)c3F)c2n1 [molecule 38z″, 2-Butoxy-N-cyclopropyl-9-(2,6-difluoro-3-methylbenzyl)-9H-purin-6-amine, reference compound] |  |  | > 100 |  |  |  |  | no antibacterial activity | did not differ from vehicle control | no antibacterial activity | 
CCn1cnc2c(N[C@@H]3C[C@H]3c3ccc(F)c(F)c3)nc(SC)nc21 [molecule 2511, N-((1R,2S)-2-(3,4-difluorophenyl)cyclopropyl)-9-ethyl-2-(methylthio)-9H-purin-6-amine] | killed all bacteria | >100 | 50 (≈ 18.1 µg/mL) | > 100 | bactericidal activity |  |  |  |  |  | 
CCCSc1nc(N[C@@H]2C[C@H]2c2ccc(F)c(F)c2)c2ncn([C@@H]3C[C@H](O)[C@@H](O)[C@H]3O)c2n1 [molecule 2461, (1S,2R,3S,4R)-4-(6-(((1R,2S)-2-(3,4-difluorophenyl)cyclopropyl)amino)-2-(propylthio)-9H-purin-9-yl)cyclopentane-1,2,3-triol] |  | >100 | 10 (≈ 4.78 µg/mL) | > 100 | bactericidal activity | >100 | 50 (≈ 23.9 µg/mL) |  |  |  | killed all bacteria
C#CCn1cnc2c(N[C@@H]3C[C@H]3c3ccc(F)c(F)c3)nc(SCCC)nc21 [molecule 2452, N-((1R,2S)-2-(3,4-difluorophenyl)cyclopropyl)-9-(prop-2-yn-1-yl)-2-(propylthio)-9H-purin-6-amine] |  | >100 | 10 (≈ 3.99 µg/mL) | > 100 |  | >100 | 50 (≈ 20 µg/mL) |  |  |  | 
CCCCCOc1nc(NCc2ccccc2)c2ncn(Cc3c(F)ccc(C)c3F)c2n1 [molecule 40z″, N-benzyl-9-(2,6-difluoro-3-methylbenzyl)-2(pentyloxy)-9H-purin-6-amine, reference compound] |  |  | > 100 |  |  |  |  | no antibacterial activity | did not differ from vehicle control | no antibacterial activity | 
CCCCSc1nc(NCc2c(F)ccc(C)c2F)c2ncn(Cc3c(F)ccc(C)c3F)c2n1 [molecule 41z″, 2-(Butylthio)-N,9-bis(2,6-difluoro-3-methylbenzyl)-9H-purin-6-amine, reference compound] |  |  | > 100 |  |  |  |  | no antibacterial activity | did not differ from vehicle control | no antibacterial activity | 
CSc1nc(N[C@@H]2C[C@H]2c2ccc(F)c(F)c2)c2cnn(C)c2n1 [molecule 2539, N-((1R,2S)-2-(3,4-difluorophenyl)cyclopropyl)-1-methyl-6-(methylthio)-1H-pyrazolo[3,4-d]pyrimidin-4-amine] | killed all bacteria | >100 | 25 (≈ 8.68 µg/mL) | > 100 | bactericidal activity |  |  |  |  |  | 

— US12318388B2, “Pyrimidine derivatives for prevention and treatment of gram-negative bacterial infection, contamination and fouling” (UNIVERSITÉ DE LIÈGE, priority 2019, dated 2025)
